Structures are written as SMILES.

In the assay the test system is ApoB secretion, HepG2 cells. The assay can be described thus: Quantification of the secretion of ApoB (HepG2 cells, immunoprecipitation, scintillation counting). It counts as cell-based. The conditions noted are these: Homo sapiens, HepG2, 24 h, 24 hours of incubation. The protocol: C.1. Quantification of the Secretion of ApoB
HepG2 cells were cultured in 24-well plates in Minimal Essential Medium Rega 3 containing 10% fetal calf serum. Rega 3 has the following composition: CaCl2 (264 μg/ml), KCl (400 μg/ml), MgSO4.7H2O (200 μg/ml), NaCl (6800 μg/ml), NaHCO3 (850 μg/ml), NaH2PO4.H2O (158 μg/ml), D-glucose (1000 μg/ml), phenol red (10 μg/ml), L-alanine (8.9 μg/ml), L-arginine HCl (12 μg/ml), L-asparagine.H2O (15 μg/ml), L-aspartic acid (13.3 μg/ml), L-cystine (24 μg/ml), L-glutamic acid (14.7 μg/ml), glycine (7.5 μg/ml), L-histidine.HCl .H2O (42 μg/ml), L-isoleucine (52 μg/ml), L-leucine (52 μg/ml), L-lysine.HCl (72.5 μg/ml), L-methionine (15 μg/ml), L-phenylalanine (32 μg/ml), L-proline (11.5 μg/ml), L-serine (10.5 μg/ml), L-threonine (48 μg/ml), L-tryptophan (10 μg/ml), L-tyrosine (36 μg/ml), L-valine (46 μg/ml), D-Ca pantothenate (1 μg/ml), choline chloride (1 μg/ml), folic acid (1 μg/ml), 1-enositol (2 μg/ml), nicotinamide (1 μg/ml), pyridoxal HCl (1 μg/ml), riboflavin (0.1 μg/ml) and thiamine HCl (1 μg/ml).
At 70% confluency, the medium was changed and the test compound or carrier (dimethylsulfoxide, 0.4% final concentration) was added. After 24 hours of incubation, the medium was transferred to Eppendorf tubes and cleared by centrifugation. A sheep antibody directed against either apo B was added to the supernatant and the mixture was kept at 8° C. for 24 hours. Then, rabbit anti-sheep antibody was added and the immune complex was allowed to precipitate for 24 hours at 8° C. The immunoprecipitate was pelleted by centrifugation for 25 minutes at 1320 g and washed twice with a buffer containing 40 mM 4-morpholinepropanesulfonic acid, 40 mM NaH2PO4, 100 mM NaF, 0.2 mM dithiothreitol, 5 mM ethylenediamine tetraacetic acid, 5 mM ethylenebis (oxyethylenenitrilo) tetraacetic acid, 1% Triton-X-100, 0.5% sodium deoxycholate, 0.1% sodium dodecylsulphate, 0.2 μM leupeptin and 0.2 μM phenylmethylsulphonylfluoride. Radioactivity in the pellet was quantified by liquid scintillation counting.
Resulting IC50 values are enumerated in Table C.1 for a number of compounds No. 1 to No. 123.
On to `C=CCOC(=O)C(c1ccccc1)C1CCN(c2ccc(NC(=O)c3ccccc3-c3ccccc3)cc2)CC1` (centres unmarked) [Co. No. 179], for which half-maximal inhibition (IC50) required 0.403 µM.
Next, `COC(=O)C(c1ccccc1)C1CCN(c2ccc(NC(=O)c3ccccc3-c3ccc(CC(C)C)cc3)cc2)CC1` (centres unmarked) [Co. No. 233]: below 0.03 µM; `CC(C)NC(=O)C(c1ccccc1)C1CCN(c2ccc(NC(=O)c3ccccc3-c3ccccc3)cc2)CC1` (centres unmarked) [Co. No. 22]: 0.104 µM.
Compound `CCCNC(=O)C(c1ccccc1)C1CCN(c2ccc(NC(=O)c3ccccc3-c3ccccc3Cl)cc2)CC1` (centres unmarked) [Co. No. 45] gave an IC50 of at least 3 µM.
With `C=CCOC(=O)C(c1ccccc1)N1CCN(c2ccc(NC(=O)c3ccccc3-c3ccc(C(F)(F)F)cc3)cc2)CC1` (centres unmarked) [Co. No. 144], the IC50 was 0.202 µM.
For the compound `CCNC(=O)C(c1ccccc1)C1CCN(c2ccc(NC(=O)c3ccccc3-c3ccc(Cl)cc3)cc2)CC1` (centres unmarked) [Co. No. 91], the IC50 was 0.00869 µM.
Next, `O=C(Nc1ccc(N2CCC(C(C(=O)NCc3ccccc3)c3ccccc3)CC2)cc1)c1cccc2c1Cc1ccccc1-2` (centres unmarked) [Co. No. 4]: at least 3 µM.
Next, `C=CCNC(=O)C(c1ccccc1)N1CC=C(c2ccc(NC(=O)c3ccccc3-c3ccc(C(F)(F)F)cc3)cc2)CC1` (centres unmarked) [Co. No. 165]: 0.033 µM; `COC(=O)C(c1ccccc1)N1CCN(c2ccc(NC(=O)c3cccc(C)c3-c3ccc(C(F)(F)F)cc3)cc2)CC1` (centres unmarked) [Co. No. 190]: 0.00641 µM.
Then `CCNC(=O)C(c1ccccc1)C1CCN(c2ccc(NC(=O)c3ccccc3-c3ccc(F)cc3)cc2)CC1` (centres unmarked) [Co. No. 92], with 0.0632 µM; and `CCCNC(=O)C(c1ccccc1)C1CCN(c2ccc(NC(=O)c3ccccc3-c3ccccc3C(F)(F)F)cc2)CC1` (centres unmarked) [Co. No. 130], with 0.36 µM; and `CCCNC(=O)C(c1ccccc1)N1CCCN(c2ccc(NC(=O)c3ccccc3-c3ccc(C(F)(F)F)cc3)cc2)CC1` (centres unmarked) [Co. No. 123], with 0.241 µM.
As for `C=CCOC(=O)C(c1ccccc1)N1CCN(c2ccc(NC(=O)c3ccccc3-c3ccccc3)cc2)CC1` (centres unmarked) [Co. No. 146], the IC50 is 0.341 µM.
`O=C(Nc1ccc(N2CCN(CC(C(=O)NCC(F)(F)F)c3ccccc3)CC2)cc1)c1ccccc1-c1ccc(C(F)(F)F)cc1` (centres unmarked) [Co. No. 66] showed an IC50 of 0.0796 µM. Against the preceding compound, the IC50 is about 4.3-fold lower.
`O=C(Nc1ccc(N2CCN(C(C(=O)NCc3ccccc3)c3ccccc3)CC2)cc1)c1ccccc1-c1ccccc1` (centres unmarked) [Co. No. 141]: the IC50 was 0.0251 µM.
Next, `O=C(Nc1ccc(C2=CCN(C(C(=O)Nc3ccccc3)c3ccccc3)CC2)cc1)c1ccccc1-c1ccc(C(F)(F)F)cc1` (centres unmarked) [Co. No. 164]: 0.1 µM.
As for `COC(=O)C(c1ccccc1)N1CCN(c2ccc(NC(=O)c3ccccc3-c3ccc(C(F)(F)F)cc3)c(C)c2)CC1` (centres unmarked) [Co. No. 208], the midpoint of inhibition, the IC50, lay at 0.00748 µM.
Then `CCCNC(=O)C(c1ccccc1)C1CCN(c2ccc(NC(=O)c3ccccc3Oc3ccccc3)cc2)CC1` (centres unmarked) [Co. No. 19], with 0.264 µM.
The compound `CCNC(=O)C(c1ccccc1)C1CCN(c2ccc(NC(=O)c3ccccc3-c3ccc(OC)cc3)cc2)CC1` (centres unmarked) [Co. No. 93] showed an IC50 of 0.0723 µM.
Then `CCNC(=O)C(c1ccccc1)N1CCN(c2ccc(NC(=O)c3c(F)cccc3-c3ccc(C(F)(F)F)cc3)cc2)CC1` (centres unmarked) [Co. No. 196], with 0.1 µM.
`CCCNC(=O)C(c1ccccc1)C1CCN(c2ccc(NC(=O)c3ccccc3-c3ccccc3C)cc2)CC1` (centres unmarked) [Co. No. 131] showed an IC50 of 0.417 µM.
`CCCNC(=O)C(c1ccccc1)C1CCN(c2ccc(NC(=O)c3cccc4c3Cc3ccccc3-4)cc2)CC1` (centres unmarked) [Co. No. 14]: the IC50 is at least 3 µM.
On to `COc1ccccc1-c1ccccc1C(=O)Nc1ccc(N2CCC(C(C(=O)NCc3ccccc3)c3ccccc3)CC2)cc1` (centres unmarked) [Co. No. 101], for which the IC50 was 0.207 µM.
Next, `O=C(Nc1ccc(C2CCN(C(C(=O)NCc3ccccc3)c3ccccc3)CC2)cc1)c1ccccc1-c1ccccc1` (centres unmarked) [Co. No. 161]: 0.0689 µM.
Then `O=C(Nc1ccc(C2CCN(C(C(=O)NC3CC3)c3ccccc3)CC2)cc1)c1ccccc1-c1ccc(C(F)(F)F)cc1` (centres unmarked) [Co. No. 72], with at most 0.03 µM.
Then `CC(C)NC(=O)C(c1ccccc1)C1CCN(c2ccc(NC(=O)c3cccc4c3Cc3ccccc3-4)cc2)CC1` (centres unmarked) [Co. No. 23], with at least 3 µM; and `O=C(Nc1ccc(C2CCN(C(C(=O)OCCCc3ccccc3)c3ccccc3)CC2)cc1)c1ccccc1-c1ccc(C(F)(F)F)cc1` (centres unmarked) [Co. No. 221], with below 0.03 µM.
The compound `COC(=O)C(c1ccc(Cl)cc1)N1CCN(c2ccc(NC(=O)c3ccccc3-c3ccc(C(F)(F)F)cc3)cc2)CC1` (centres unmarked) [Co. No. 263] gave an IC50 of 0.279 µM.
As for `CCNC(=O)C(c1ccccc1)C1CCN(c2ccc(NC(=O)c3ccccc3-c3cccc4ccccc34)cc2)CC1` (centres unmarked) [Co. No. 134], half-maximal inhibition (IC50) was put at 0.0653 µM.
For `Cc1ccc(-c2ccccc2C(=O)Nc2ccc(N3CCC(C(C(=O)Nc4ccccc4)c4ccccc4)CC3)cc2)cc1` (centres unmarked) [Co. No. 117], the IC50 was 0.121 µM.
Next, `CCNC(=O)C(c1ccccc1)N1CCN(c2ccc(NC(=O)c3c(C)cccc3-c3ccc(C(F)(F)F)cc3)cc2)CC1` (centres unmarked) [Co. No. 197]: 0.0165 µM; `CCCNC(=O)C(c1ccccc1)C1CCN(c2ccc(NC(=O)c3ccccc3-c3ccc(Cl)c(Cl)c3)cc2)CC1` (centres unmarked) [Co. No. 83]: 0.0433 µM; `COC(=O)C(c1ccccc1)N1CCN(c2ccc(NC(=O)c3ccccc3-c3ccc(Cl)cc3)cc2)CC1` (centres unmarked) [Co. No. 159]: 0.106 µM.
Then `CCNC(=O)C(c1ccccc1)C1CCN(c2ccc(NC(=O)c3ccccc3-c3ccc4ccccc4c3)cc2)CC1` (centres unmarked) [Co. No. 95], with at most 0.03 µM; and `C=CCNC(=O)C(c1ccccc1)N1CC=C(c2ccc(NC(=O)c3ccccc3-c3ccccc3)cc2)CC1` (centres unmarked) [Co. No. 167], with below 0.03 µM; and `CCNC(=O)C(c1ccccc1)C1CCN(c2ccc(NC(=O)c3ccccc3-c3cccc(C)c3)cc2)CC1` (centres unmarked) [Co. No. 90], with 0.0141 µM.
With `C=CCOC(=O)C(c1ccccc1)N1CCC(c2ccc(NC(=O)c3ccccc3-c3ccc(C(F)(F)F)cc3)cc2)CC1` (centres unmarked) [Co. No. 152], the IC50 is 0.0944 µM.
Next, `COC(=O)C(c1cccc(Cl)c1)N1CCN(c2ccc(NC(=O)c3ccccc3-c3ccc(C(F)(F)F)cc3)cc2)CC1` (centres unmarked) [Co. No. 260]: below 0.03 µM; `CCNC(=O)C(c1ccccc1)C1CCN(c2ccc(NC(=O)c3ccccc3-c3cc(Cl)cc(Cl)c3)cc2)CC1` (centres unmarked) [Co. No. 49]: 0.236 µM.
Turning to `COC(=O)C(c1ccccc1)N1CCN(c2ccc(NC(=O)c3cc(OC)ccc3-c3ccc(C(F)(F)F)cc3)cc2)CC1` (centres unmarked) [Co. No. 186], the IC50 was 0.2 µM.
`COC(=O)C(c1ccccc1)N1CCN(c2ccc(NC(=O)c3cc(Cl)ccc3-c3ccc(C(F)(F)F)cc3)cc2)CC1` (centres unmarked) [Co. No. 191]: inhibition was half-maximal at 0.00719 µM (IC50).
`CCCNC(=O)C(CN1CCN(c2ccc(NC(=O)c3ccccc3-c3ccc(C(F)(F)F)cc3)cc2)CC1)c1ccccc1` (centres unmarked) [Co. No. 63, N-[4-[4-[3-oxo-2-phenyl-3-(propylamino)propyl]-1-piperazinyl]phenyl]-4′-(trifluoromethyl)-[1,1′-biphenyl]-2-carboxamide] had an IC50 of 0.122 µM.
`CCNC(=O)C(c1ccccc1)N1CCN(c2ccc(NC(=O)c3ccccc3-c3ccc(C(F)(F)F)cc3)cc2C(F)(F)F)CC1` (centres unmarked) [Co. No. 217] gave an IC50 of 2.69 µM.
Then `CCNC(=O)C(c1ccccc1)N1CCN(c2ccc(NC(=O)c3cc(Cl)ccc3-c3ccc(C(F)(F)F)cc3)cc2)CC1` (centres unmarked) [Co. No. 200], with 0.0802 µM.
Then `CCNC(=O)C(c1ccccc1)N1CCN(c2ccc(NC(=O)c3cc(C)ccc3-c3ccc(C(F)(F)F)cc3)cc2)CC1` (centres unmarked) [Co. No. 198], with 0.0731 µM; and `CCc1ccc(-c2c(C)cccc2C(=O)Nc2ccc(N3CCC(C(C(=O)OC)c4ccccc4)CC3)cc2)cc1` (centres unmarked) [Co. No. 234], with below 0.03 µM.
Next, `O=C(Nc1ccc(N2CCC(C(C(=O)Nc3ccccc3)c3ccccc3)CC2)cc1)c1cccc2c1Cc1ccccc1-2` (centres unmarked) [Co. No. 29]: at least 3 µM.
On to `CCNC(=O)C(c1ccc(F)cc1)C1CCN(c2ccc(NC(=O)c3ccccc3-c3ccc(C(F)(F)F)cc3)cc2)CC1` (centres unmarked) [Co. No. 256], for which the midpoint of inhibition, the IC50, lay at 0.0151 µM.
Next, `CCCNC(=O)C(c1ccccc1)C1CCN(c2ccc(NC(=O)c3ccccc3-c3ccc(F)cc3)cc2)CC1` (centres unmarked) [Co. No. 44]: 1.04 µM; `O=C(Nc1ccc(N2CCC(C(C(=O)NCc3ccccc3)c3ccccc3)CC2)cc1)c1ccccc1OCc1ccccc1` (centres unmarked) [Co. No. 8]: 0.0601 µM.

These data come from patent US8354402B2, “Polyarylcarboxamides useful as lipid lowering agents” (Janssen Pharmaceutica N.V., priority 2000, dated 2013).
